Test results published in PMC11806654, “In Vitro Discovery of a Therapeutic Lead for HFMD From a Library Screen of Rocaglates/Aglains” (Journal of Medical Virology, 2025).
“Also recorded” adds a separate entry of the source. Read-outs that look alike come from different tables or passages of the source.

Assays:
NSC-34 cells [1] = assay: alamarBlue cytotoxicity screen; settings: screen, 10 µM
EV-A71 [2] = assay: High-throughput immunofluorescence antiviral screen in NSC-34 cells; format: cell-based, human enterovirus A71; settings: for log reduction at 10 µM: Enterovirus A
SARS-CoV-2 = tested on: SARS-CoV-2; design: method as in PMID 39117283; settings: cited from earlier work
NF-κB = settings: read-out: NF-κB inhibition IC50; cited from earlier work
P-388 = tested on: P-388; design: method as in PMID 11170675; settings: P-388 cell line; cited from earlier work
A549 = tested on: A549; design: method as in PMID 11170675; settings: A549 cell line; cited from earlier work
EV-A71 [3] = assay: Plaque-assay antiviral validation in NSC-34 cells; format: cell-based, human enterovirus A71; settings: for Maximum viral titre reduction observed in dose response (Log): EV-A71 MOI 1, plaque assay; for EC50: Enterovirus A, EVA71, EV-A71 MOI 1, plaque assay
Description: (§1) The complete cytotoxicity profiles of selected rocaglate/aglain derivatives against NSC‐34 or SH‐SY5Y cells were determined via the alamarBlue assay. Treated cells were incubated with the compounds for 12 h (NSC‐34) or 24 h (SH‐SY5Y). Negative and vehicle controls of this assay involved cells treated with fresh reduced serum DMEM and 0.1% DMSO, respectively. Cell viability in each treatment group was determined based on the intensity of colorimetric changes of each treatment group. […] Following incubation, infected cells were rinsed with sterile 1X PBS to remove any unbound virus particles. Specific concentrations of respective compounds were added to the cells in triplicates and incubated for 12 h (NSC‐34) or 24 h (SH‐SY5Y). At the end of the incubation period, two cycles of freeze‐thaws (−80°C; 37°C) were performed on the plates before collection of supernatants from each treatment or control group for virus titre measurement via plaque assay, as described.
(§2) (A) NSC‐34 cells were treated with various concentrations of respective compounds, in the presence or absence of EV‐A71 (MOI 1) infection. Resulting cell viability and virus yield from respective experimental setups were determined via alamarBlue and plaque assays, respectively. […] For (B), (C) and (D), virus titres were represented in bars and shown on the left‐hand y‐axis, whereas cell viabilities were presented in lines and illustrated on the right‐hand y‐axis.
(§3) Figure S1. Validation of cytotoxicity and antiviral profiles of compound 13 in NSC-34 cells. NSC-34 cells were treated with specific concentrations of compound 13 in the presence or absence of EV-A71 (MOI 1) infection. Resulting cell viability and virus yield from respective experimental setups were determined via alamarBlue^TM and plaque assays, respectively.

[4] = alamarBlue cytotoxicity dose response, HBMECs; format: cell-based; settings: human, primary human brain microvascular endothelial cells (HBMECs)
Description: (§5) Evaluation of cytotoxicity and antiviral profiles of compound 13 in primary human brain microvascular endothelial cells (HBMECs). HBMECs were treated with specific concentrations of compound 13, in the presence or absence of EV-A71 (MOI 1) infection. Resulting cell viability and virus yield from respective experimental setups were determined via alamarBlue^TM and plaque assays, respectively.

EV-A71 VP2 = assay: Immunoblotting of viral protein; settings: SH-SY5Y cells, versus vehicle control
Description: Cells from specific treatment and control groups were lysed with lysis buffer containing 1X Laemmli buffer. The resulting cell lysates were heated for 10 min at 95°C and subjected to SDS‐PAGE run in 10% acrylamide gels at 100 V for 2 h. The proteins were then transferred to a polyvinylidene fluoride membrane using the Trans‐Blot Turbo system (Bio‐Rad). Following a 20 min membrane blocking using 2% bovine serum albumin (BSA) dissolved in Tris‐buffered saline‐Tween 20 (TBST), specific viral protein and host loading controls were probed using the mouse antibodies targeting EV‐A71 VP2 (MAB979) and host β‐actin, respectively. After 1 h incubation with constant rocking at room temperature, the membranes were subjected to three rounds of washes using TBST before incubation at room temperature with horseradish peroxidase (HRP) conjugated goat anti‐mouse IgG secondary antibody (Thermo Fisher Scientific) for 1 h. Following three rounds of membrane washing with TBST, specific protein bands were developed using the Immobilon Western Chemiluminescent HRP substrate (Merck Millipore) for 3 min. […]
Lysates of EV‐A71 (MOI 1)‐infected SH‐SY5Y cells treated with specific concentrations of compound 13 were used for (A) qRT‐PCR‐based viral strand‐specific RNA quantification or (B) immunoblotting measurement of specific protein levels. […]

[5] = tested on: positive- and negative-sense RNA of EV-A71; assay: qRT-PCR strand-specific viral RNA quantification; format: cell-based, human enterovirus A71; settings: 6 and 8 µM, 12 and 24 h.p.i., SH-SY5Y cells
EV-A71 [6] = assay: Pre-treatment assay in SH-SY5Y cells; settings: cells exposed to compound before infection
Description: (§6) The assays were performed in SH‐SY5Y cells in triplicates and resulting virus titres were quantified via plaque assays as previously described [27].
(§7) (A) Time‐of‐addition (TOA) and time‐of‐removal (TOR) of compound 13 (8 μM) at specific time points across the EV‐A71 replication cycle in SH‐SY5Y cells. For TOA, virus‐containing media was aspirated and replaced with compound 13 (8 μM) at 0, 2, 4, 6, 8, 10, 12 or 18 h postinfection (h.p.i.). […] At 24 h.p.i., supernatant from each treatment and control group was collected for virus quantification via plaque assay. Separately, SH‐SY5Y cells were infected with EV‐A71 (MOI 1) and treated with specific concentrations of compound 13 according to previously published experimental schemes for (B) pre‐treatment, (C) co‐treatment and (D) entry‐bypass assays [27]. At 24 h.p.i., supernatant was collected and used for virus yield measurement via plaque assay. Every assay was performed in triplicates with error bars representing standard deviation from the mean of triplicates. 0.1% DMSO served as the mock control group of respective assays.
(§8) In the pre‐treatment set‐up, host cells were first treated with the compound before virus challenge. […] Conversely, in the co‐treatment assay extracellular virions were treated with the compound before infecting the cells. […]

EV-A71 [7] = assay: Plaque-assay antiviral dose response in RD cells; format: cell-based, human enterovirus A71; settings: Enterovirus A, EVA71
Description: as §1
(§4) (A) NSC‐34 cells were treated with various concentrations of respective compounds, in the presence or absence of EV‐A71 (MOI 1) infection. Resulting cell viability and virus yield from respective experimental setups were determined via alamarBlue and plaque assays, respectively. […]

in vitro = settings: mouse
EV-A71 [8] = assay: Co-treatment assay in SH-SY5Y cells; settings: compound present during infection
Description: as §6, §7, §8

[9] = alamarBlue cytotoxicity dose response, RD; format: cell-based; settings: human, RD cells
EV-A71 [10] = assay: Plaque-assay antiviral dose response in SH-SY5Y cells; format: cell-based, human enterovirus A71
Description: as §1, §4

CV-A6 = assay: Pan-enterovirus plaque assay in SH-SY5Y cells, CV-A6; format: cell-based
Description: as §1, §4

EV-A71 [11] = assay: Plaque-assay antiviral dose response in primary HBMECs; format: cell-based, human enterovirus A71; settings: Enterovirus A, EVA71
Description: as §5

[12] = alamarBlue cytotoxicity dose response, NSC-34; settings: mouse
Description: as §1, §2, §3

[13] = tested on: replication-competent EV-A71 replicon; assay: Nano-luciferase replicon assay, replication-competent; settings: SH-SY5Y cells, 24 h
Description: (§9) Using DharmaFECT 1 transfection reagent (Dharmacon), SH‐SY5Y cells seeded in 96‐well plates were transfected with either our established replication‐competent or replication‐defective EV‐A71 replicon construct [27, 29] and incubated for 4 h. At the end of incubation, the transfected cells were washed with sterile 1X PBS and treated with 0.1% DMSO or respective concentrations of test compound or positive controls. Guanidine hydrochloride (GuHCl) was used as positive control for the replication‐competent replicon, and cycloheximide (CHX) was used as positive control for the replication‐defective replicon. After 24 h, luciferase signal detection was subsequently performed using the Nano‐Glo kit (Promega, Madison, WI, USA) with a GLOMAX Multi‐Detection System microplate reader (Promega, Madison, WI, USA).
(§10) Guanidine hydrochloride (GuHCl), an eukaryotic RNA transcription inhibitor [38], and cycloheximide (CHX), an inhibitor of the elongation phase during RNA translation [39], were used as positive controls of respective assays. 0.1% DMSO served as the mock control group of respective assays. Luminescence readings generated by SH‐SY5Y cells transfected with either the established replication‐competent or replication‐defective replicons [27] were measured using a microplate reader and normalized against the DMSO control. […]

CV-A16 = assay: Pan-enterovirus plaque assay in SH-SY5Y cells, CV-A16; format: cell-based, Coxsackievirus A16
Description: as §1, §4

[14] = alamarBlue cytotoxicity dose response, SH-SY5Y; format: cell-based; settings: human, SH-SY5Y cells
Description: as §1, §4

EV-A71 [15] = assay: Time-of-addition / time-of-removal assay in SH-SY5Y cells; format: cell-based, human enterovirus A71; settings: 8 μM
EV-A71 [16] = assay: Entry-bypass assay (viral RNA transfection) in SH-SY5Y cells; format: cell-based, human enterovirus A71
Description: Having excluded the virus attachment and entry steps, we deemed it likely that aglain 13 targets the early post‐entry stages of EV‐A71 life cycle involving the initial virus uncoating, viral RNA genome replication or protein production. As packaging and secretion of newly synthesized EV‐A71 virions from infected cells generally begin after 6 h.p.i., compound 13 is unlikely to interfere with the later phases of the virus life cycle (Figure 6A). The ability of compound 13 to interfere with EV‐A71 post‐entry events was further corroborated via our entry‐bypass assay wherein host cells were first transfected with in vitro isolated viral RNA before compound treatment (Figure 6D). […] As compound 13 targets the intracellular replication steps of EV‐A71, its effects on two primary pre‐packaging stages of the virus life cycle, namely viral RNA replication and protein production, were evaluated.

[17] = tested on: replication-defective EV-A71 replicon; assay: Nano-luciferase replicon assay, replication-defective; settings: SH-SY5Y cells, 24 h
Description: as §9, §10

[18] = alamarBlue cytotoxicity screen; settings: mouse, NSC-34 cells
NSC-34 cells [19] = assay: in vitro
Description: as §1, §2, §3

[20] = EVA71, screen, 10 µM, NSC-34 cells, EV-A71 MOI 1, 12 h, read-out: EV-A71 inhibition (logs), reduction in viral titre
[21] = EVA71, NSC-34, 12 h, read-out: EV-A71 inhibition (logs), reduction in viral titre, screen, 10 µM, NSC-34 cells, EV-A71 MOI 1, 12 h

For `CONC(=O)C1C(O)C2(O)c3c(OC)cc(OC)cc3OC2(c2ccc(OC)cc2)C1c1ccccc1` (stereo not shown) [Compound 3, CR‐1‐31b, reference compound], the “host cell cytotoxicity in screen” value (NSC-34 cells [1]) was “unacceptably toxic; also recorded: high level of host cell cytotoxicity”, the log reduction at 10 µM (EV-A71 [2]; [20]) was > 2 and the “antiviral activity in screen” value (EV-A71 [2]; screen, 10 µM, NSC-34 cells) was “appreciable antiviral activity”.

For `COc1ccc(C23Oc4cc(OC)cc(OC)c4C24NC(C)=NC4(O)C(C(=O)N(C)OC)C3c2ccccc2)cc1` (stereo not shown) [Compound 4], the “host cell cytotoxicity in screen” value (NSC-34 cells [1]) was “unacceptably toxic; also recorded: high level of host cell cytotoxicity”, the log reduction at 10 µM (EV-A71 [2]; [21]) was > 2 and the “antiviral activity in screen” value (EV-A71 [2]; screen, 10 µM, NSC-34 cells) was “appreciable antiviral activity”. The “inhibition of SARS-CoV-2 replication” value (SARS-CoV-2) was “inhibition of SARS‐CoV‐2 replication”.

In the case of `COC(=O)C1C(O)C2(O)c3c(OC)cc(OC)cc3OC2(c2ccc(OC)cc2)C1c1ccccc1` (stereo not shown) [Compound 6, reference compound], the log reduction at 10 µM (EV-A71 [2]; [20]) is reported as > 2 and the “antiviral activity in screen” value (EV-A71 [2]; screen, 10 µM, NSC-34 cells) is reported as “appreciable antiviral activity”.

For `COc1ccc(C23Oc4cc(OC)cc(OC)c4C(O)(C(C(=O)N4CCCC4OC)C2c2ccccc2)C3O)cc1` (stereo not shown) [Compound 8, (‐)‐ponapensin], the IC50 (NF-κB) is given as 0.06 µM.

In the case of `CC=C(C)C(=O)NC1CCCN1C(=O)C1C(c2ccccc2)C2(c3ccc(OC)cc3)Oc3cc(OC)cc(OC)c3C1(O)C2O` (stereo not shown) [Compound 9, (‐)‐elliptifoline], the “cytotoxic activity ED50” value (P-388) is given as 3.4 µg/mL and the “cytotoxic activity ED50” value (A549) is given as 18.9 µg/mL.

With `COc1ccc(C23Oc4cc(OC)cc(OC)c4C(O)(C(c4c(F)c(F)c(F)c(F)c4F)C2c2ccccc2)C3O)cc1` (stereo not shown) [Compound 13] the “downregulation of virus titer” value (EV-A71 [3]; 15 µM) was “approximately 2 logs”, the “selectivity index (SI = CC50/EC50)” value (EV-A71 [3]; EV-A71) was 6.1 and the “Maximum viral titre reduction observed in dose response (Log)” value (EV-A71 [3]) was 2.53 Log. The EC50 (EV-A71 [3]) was 3.57 µM, the CC50 [4] was 89.4 µM and the “downregulation of viral protein expression levels (VP2)” value (EV-A71 VP2) was > 50%. The “positive- and negative-sense RNA of EV-A71” value [5] was “significant decrease”, the “inhibition of EV-A71 replication, pre-treatment” value (EV-A71 [6]) was “ineffective inhibition; also recorded: no significant inhibition” and the EC50 (EV-A71 [7]) was 0.43 µM. For the same compound, the viability at 10 µM (in vitro; Cell Viability (%), screen, 10 µM, NSC-34 cells, 12 h) was > 90%, the “inhibition of EV-A71 replication, co-treatment” value (EV-A71 [8]) was “ineffective inhibition; also recorded: no significant inhibition” and the “Cell Viability (%)” value (NSC-34 cells [1]; 12 h) was 91%. The CC50 [9] was 11.2 µM, the log reduction at 10 µM (EV-A71 [2]; [21]) was 2.3 and the “downregulation of virus titer” value (EV-A71 [10]; 8 µM, SH-SY5Y cells) was “approximately 2 logs”. The EC50 (EV-A71 [10]; Enterovirus A, EVA71, EV-A71 in SH-SY5Y cells) was 5.43 µM, the “infectious CV-A6 titers” value (CV-A6; 6 and 8 µM, SH-SY5Y cells) was “significantly reduced” and the EC50 (CV-A6; Enterovirus A, CVA6, CV-A6 in SH-SY5Y cells) was 0.51 µM. For the same compound, the EC50 (EV-A71 [11]) was 32.8 µM, the CC50 at 12 h [12] was 21.8 µM and the “luciferase signal, replication-competent replicon” value [13] was “significantly decreased”. For the same compound, the “infectious CV-A16 titers” value (CV-A16; 6 and 8 µM, SH-SY5Y cells) was “significantly reduced”, the EC50 (CV-A16; Enterovirus A, CVA16, CV-A16 in SH-SY5Y cells) was 0.8 µM and the CC50 at 24 h [14] was 11 µM. The “time of addition at which EV-A71 yields were suppressed” value (EV-A71 [15]; TOA) was < 6 h.p.i, the “viral load on time-of-removal” value (EV-A71 [15]; TOR, every time point up to 18 h.p.i.) was “continuous reduction in the viral load” and the “suppression of virus yields, entry-bypass” value (EV-A71 [16]; 6 µM) was 0.88 logs. The “suppression of virus yields, entry-bypass” value (EV-A71 [16]; 8 µM) was 2.27 logs and the “luciferase signal, replication-defective replicon” value [17] was “significantly decreased”.

In the case of `COc1ccc(C23Oc4cc(OC)cc(OC)c4C(O)(C2=O)C(c2ccccc2)C3c2ccccc2)cc1` (stereo not shown) [Compound 14], the “Maximum viral titre reduction observed in dose response (Log)” value (EV-A71 [3]) is reported as 0.82 Log, the EC50 (EV-A71 [3]) is reported as 18.9 µM and the viability at 12 h, 10 µM [18] is reported as 106%. For the same compound, the log reduction at 10 µM (EV-A71 [2]; EVA71, NSC-34, 12 h, screen, 10 µM, NSC-34 cells, EV-A71 MOI 1, 12 h, read-out: EV-A71 inhibition (logs), reduction in viral titre) was ~1, the “EV-A71 inhibition (logs), reduction in viral titre” value (EV-A71 [2]; screen, 10 µM, NSC-34 cells, EV-A71 MOI 1, 12 h) was 1.0 logs and the CC50 at 12 h ([12]; NSC-34 cells) was 42.6 µM.

For `COC(=O)C1C(c2ccccc2)C2(c3ccc(Br)cc3)C(=O)C1(O)c1c(OC)cc(OC)cc1N2C` (stereo not shown) [Compound 15], the “Maximum viral titre reduction observed in dose response (Log)” value (EV-A71 [3]) was 0.74 Log, the EC50 (EV-A71 [3]) was 5.27 µM and the viability at 12 h, 10 µM (in vitro) was 91%. For the same compound, the log reduction at 10 µM (EV-A71 [2]; [21]) was 1.2 and the CC50 at 12 h [12] was > 50 µM.

For `COC(=O)C1C(c2ccccc2)C2(c3ccc(Br)cc3)C(O)C1(O)c1c(OC)cc(OC)cc1N2C` (stereo not shown) [Compound 16], the “Maximum viral titre reduction observed in dose response (Log)” value (EV-A71 [3]) was 0.89 Log, the EC50 (EV-A71 [3]) was 44.2 µM and the viability at 12 h, 10 µM (in vitro) was 81%. For the same compound, the log reduction at 10 µM (EV-A71 [2]; [21]) was 1.4, the “antiviral activity in screen” value (EV-A71 [2]; screen, 10 µM, NSC-34 cells) was “showed antiviral activity” and the CC50 at 12 h [12] was > 50 µM.

In the case of `COC(=O)C1C(c2ccccc2)C2(c3ccc(OC)cc3)Oc3cc(OC)cc(OC)c3C1(O)C2O` (stereo not shown) [Compound 17], the viability at 12 h, 10 µM (in vitro) is reported as 108%, the “host cell cytotoxicity in screen” value (NSC-34 cells [1]) is reported as “non‐cytotoxic” and the log reduction at 10 µM (EV-A71 [2]; [21]) is reported as 0.1. For the same compound, the “antiviral activity in screen” value (EV-A71 [2]; screen, 10 µM, NSC-34 cells) was “no measurable antiviral activity”.

For `COC(=O)C1C(c2ccccc2)C2(c3ccc(Br)cc3)Oc3cc(OC)cc(OC)c3C1(O)C2=O` (stereo not shown) [Compound 18], the CC50 at 12 h [12] was 13.1 µM and the “host cell cytotoxicity in dose response” value (NSC-34 cells [19]) was “significant degree of cytotoxicity”.
